{
  "source": "patent US10907142B2",
  "about": "“Oligosaccharides comprising an aminooxy group and conjugates thereof” (Genzyme Corporation, priority 2007, dated 2021)",
  "origin": "cited, not measured here",
  "tested_on": "skeletal and cardiac muscle glycogen",
  "details": "murine model of Pompe disease; compared with recombinant human GAA; conjugate prepared by the method of U.S. Pat. No. 7,001,994",
  "data": [
    {"substance": "conjugate of the lysosomal enzyme acid α-glucosidase (GAA) with a a bis-M6P oligosaccharide: GAA coupled with a bis-M6P oligosaccharide by the method of U.S. Pat. No. 7,001,994", "values": [
      {"measurement": "reducing skeletal and cardiac muscle glycogen", "value": "more effective in reducing skeletal and cardiac muscle glycogen than recombinant human GAA"}
    ]}
  ]
}
